Measurements as given in patent publication EP3797769A1, “COMPOSITION FOR THERAPEUTIC USE” (Fontès, M. Michel, priority 2019, dated 2021).

System: fibroblastes d'un patient souffrant de CMTX
Experiment: Abnormal cell nuclei (DAPI staining, Mitocheck classification) in fibroblasts of a CMTX patient
Format: cell-based, humain
Settings: fibroblasts of the CMTX1 patient treated with clémastine at 10µmole; untreated patient cells about 30%, healthy individual less than 1% (Figure 1)
Text: Les anomalies des noyaux cellulaires sont étudiées en déposant les fiboblastes sur des lames de microscopie et en colorant les noyaux à de l'aide 4',6-diamidino-2-phénylindole, ou DAPI, les rendant ainsi fluorescents. Les anomalies nucléaires sont classées selon la classification établie par le Mitocheck, à savoir : i) les noyaux mal formés, ii) les noyaux polylobés, iii) les noyaux non séparés et iv) les autres.

CN1CCC[C@@H]1CCO[C@](C)(c1ccccc1)c1ccc(Cl)cc1 [clémastine] was tested, and the “pourcentage des noyaux anormaux” value was ~5%.
